Assays:
PERK = PERK (Homo sapiens (Human), UniProt Q9NZJ5); assay: PERK cellular assay (TR-FRET, HEK293-EGFP-eIF2α cells, tunicamycin-induced ER stress); type: cell-based; details: tunicamycin 2 hours, read-out: Cellular IC50 (μM) (EIF2a)
Experimental: Stable cell lines were created in HEK293 cells using lentiviral particles harboring an expression vector for GFP-eIF2α. Cells were selected using puromycin and enriched using fluorescence activated cell sorting against GFP. HEK293-EGFP-eIF2α cells were plated at 5000 cells/well in 384-well assay plates and incubated overnight at 37° C., 5% CO2. Inhibitor compounds were added to the wells by Echo acoustic dispensing and incubated for 30 minutes at 37° C., 5% CO2 prior to induction of ER stress by addition of tunicamycin to […] for 2 hours. Cells were lysed and TR-FRET was measured in an EnVision plate reader (PerkinElmer). FRET ratio data was normalized to signal from lysates treated with DMSO vehicle control and plotted as percent inhibition against 10-point; 3-fold dilution series of inhibitors. IC50 values were calculated using 4-parameter logistical fitting in XLFit.

[1] = target: EIF2AK3 (PERK) catalytic domain (amino acids 536-1116) (Homo sapiens (Human), UniProt Q9NZJ5); assay: PERK in vitro activity assay (isolated), TR-FRET kinase assay; details: isolated PERK enzyme, 1.5 μM ATP, GFP-eIF2a substrate; read-out: Biochemical IC50
Sequence of EIF2AK3 (PERK) catalytic domain (amino acids 536-1116) (Q9NZJ5 536-1116): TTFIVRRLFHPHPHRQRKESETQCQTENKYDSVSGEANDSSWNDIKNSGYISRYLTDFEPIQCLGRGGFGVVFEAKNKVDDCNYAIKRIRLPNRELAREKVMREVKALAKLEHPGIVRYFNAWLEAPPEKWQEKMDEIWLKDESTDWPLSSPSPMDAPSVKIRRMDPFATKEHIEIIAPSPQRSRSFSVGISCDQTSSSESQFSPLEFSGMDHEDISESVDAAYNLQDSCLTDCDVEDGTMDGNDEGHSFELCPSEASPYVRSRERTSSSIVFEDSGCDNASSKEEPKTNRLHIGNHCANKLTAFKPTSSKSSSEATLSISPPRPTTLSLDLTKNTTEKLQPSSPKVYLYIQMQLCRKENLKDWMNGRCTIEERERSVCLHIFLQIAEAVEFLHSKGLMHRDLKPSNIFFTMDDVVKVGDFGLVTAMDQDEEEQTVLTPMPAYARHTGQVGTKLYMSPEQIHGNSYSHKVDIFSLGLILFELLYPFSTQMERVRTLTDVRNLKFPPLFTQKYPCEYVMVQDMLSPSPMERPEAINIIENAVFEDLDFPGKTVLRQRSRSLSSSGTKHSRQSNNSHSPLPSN
Excerpt: PERK In Vitro Activity Assay (Isolated):
In vitro Inhibition of PERK Enzyme Activity (isolated) Recombinant human EIF2AK2 (PKR) catalytic domain (amino acids 252-551), EIF2AK3 (PERK) catalytic domain (amino acids 536-1116), GFP-eIF2a substrate, and Terbium-labelled phospho-eIF2a antibody is obtained (Invitrogen, Carlsbad, CA).
Express and purify HIS-SUMO-GCN2 catalytic domain (amino acids 584-1019) from E. coli. Perform TR-FRET kinase assays in the absence or presence of inhibitors in a reaction buffer consisting of 50 mM HEPES, pH 7.5, 10 mM MgCb, 1.0 mM EGTA, and 0.01% Brij-35, and 100-200 nM GFP-eIF2a substrate. […] Add test compound, initiate the reaction by addition of enzyme, and incubate at room temperature for 45 minutes. Stop the reaction by addition of EDTA to a final concentration of 10 mM, add Terbium-labelled phospho-eIF2a antibody at a final concentration of 2 nM, and incubate for 90 minutes. Monitor the resulting fluorescence in an EnVison® Multilabel reader (PerkinElmer, Waltham, MA). Determine TR-FRET ratios and the resulting IC50 values using a 4-parameter nonlinear logistic equation as shown: Y=(A+((B−A)/(1+((C/x)[…])))) where, Y=% specific inhibition, A=Bottom of the curve, B=Top of the curve, C=absolute IC50 (concentration causing 50% inhibition), and D=hill slope.

Sequence of PERK (Q9NZJ5 30-1116): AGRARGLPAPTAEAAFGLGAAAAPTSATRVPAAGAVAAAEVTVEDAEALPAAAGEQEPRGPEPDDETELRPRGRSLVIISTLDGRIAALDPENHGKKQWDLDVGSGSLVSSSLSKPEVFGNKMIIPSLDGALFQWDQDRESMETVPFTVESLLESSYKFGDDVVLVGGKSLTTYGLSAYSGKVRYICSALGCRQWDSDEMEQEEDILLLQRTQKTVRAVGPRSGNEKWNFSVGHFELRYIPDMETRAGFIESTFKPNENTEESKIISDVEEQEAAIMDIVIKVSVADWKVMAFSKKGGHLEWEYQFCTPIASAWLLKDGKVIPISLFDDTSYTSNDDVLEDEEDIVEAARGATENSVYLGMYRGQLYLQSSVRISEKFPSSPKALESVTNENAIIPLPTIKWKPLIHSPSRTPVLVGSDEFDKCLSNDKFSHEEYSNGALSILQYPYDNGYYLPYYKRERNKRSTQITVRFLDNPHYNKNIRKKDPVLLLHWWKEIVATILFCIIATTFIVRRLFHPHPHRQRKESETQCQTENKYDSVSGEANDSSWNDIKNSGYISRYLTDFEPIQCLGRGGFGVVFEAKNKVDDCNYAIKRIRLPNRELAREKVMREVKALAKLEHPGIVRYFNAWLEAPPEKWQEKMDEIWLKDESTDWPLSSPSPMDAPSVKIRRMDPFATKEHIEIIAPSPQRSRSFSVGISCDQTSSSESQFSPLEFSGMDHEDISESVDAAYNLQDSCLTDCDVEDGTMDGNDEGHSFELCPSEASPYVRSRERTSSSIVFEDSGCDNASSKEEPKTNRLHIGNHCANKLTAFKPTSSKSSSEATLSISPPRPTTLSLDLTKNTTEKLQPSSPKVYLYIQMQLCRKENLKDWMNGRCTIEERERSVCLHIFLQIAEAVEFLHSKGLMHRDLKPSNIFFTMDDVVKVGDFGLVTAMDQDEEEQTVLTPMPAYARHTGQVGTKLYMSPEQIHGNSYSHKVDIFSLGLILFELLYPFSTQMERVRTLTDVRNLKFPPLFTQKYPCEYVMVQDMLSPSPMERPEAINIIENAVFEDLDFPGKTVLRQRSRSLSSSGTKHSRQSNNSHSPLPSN

Row | SMILES | IC50 (PERK) [µM] | IC50 [1] [nM]
1 | CCc1cc(NC(=O)C(O)c2ccccc2C)ccc1-c1cnc(N)c(C(=O)NC(C)C)c1 (single isomer, unassigned) [Example 105, 2-amino-5-(2-ethyl-4-(2-hydroxy-2-(o-tolyl)acetamido)phenyl)-N-isopropylnicotinamide] | 0.501 to 1 | 
2 | Cc1cc(NC(=O)C(O)c2cc(F)cc(F)c2)ccc1-c1cnc(N)c(C(=O)NC2CCOCC2)n1 (single isomer, unassigned) [Example 144, 3-amino-6-(4-(2-(3,5-difluorophenyl)-2-hydroxyacetamido)-2-methylphenyl)-N-(tetrahydro-2H-pyran-4-yl)pyrazine-2-carboxamide] | 0.501 to 1 | 
3 | COCCNC(=O)c1nc(-c2ccc(NC(=O)C(O)c3cc(F)cc(F)c3)cc2C)cnc1N (single isomer, unassigned) [Example 148, 3-amino-6-(4-(2-(3,5-difluorophenyl)-2-hydroxyacetamido)-2-methylphenyl)-N-(2-methoxyethyl) pyrazine-2-carboxamide] | 0.501 to 1 | 
4 | Cc1cc(NC(=O)C(O)c2cc(F)cc(F)c2)ccc1-c1cnc(N)c(C(=O)NC2CCOCC2)c1 (centres unmarked) [Example 51, 2-amino-5-(4-(2-(3,5-difluorophenyl)-2-hydroxyacetamido)-2-methylphenyl)-N-(tetrahydro-2H-pyran-4-yl)nicotinamide] | 0.501 to 1 | 
5 | COCCNC(=O)c1cc(-c2ccc(NC(=O)C(O)c3cc(F)cc(F)c3)cc2C)cnc1N (centres unmarked) [Example 55, 2-amino-5-(4-(2-(3,5-difluorophenyl)-2-hydroxyacetamido)-2-methylphenyl)-N-(2-methoxyethyl) nicotinamide] | 1 to 2 | 
6 | Cc1cc(NC(=O)C(O)c2ccccc2C)ccc1-c1cnc(N)c(C(=O)NC(C)C)c1 (centres unmarked) [Example 64, 2-amino-5-(4-(2-hydroxy-2-(o-tolyl)acetamido)-2-methylphenyl)-N-isopropylnicotinamide] | 0.101 to 0.25 | 
7 | Cc1cc(NC(=O)C(O)c2ccccc2C)ccc1-c1cnc(N)c(C(=O)NC(C)C)c1 (centres unmarked) [Example 65, 2-amino-5-(4-(2-hydroxy-2-(o-tolyl)acetamido)-2-methylphenyl)-N-isopropylnicotinamide] | 2 to 3 | 
8 | Cc1cc(NC(=O)C(O)c2cccc(C(F)(F)F)c2)ccc1-c1cnc(N)c(C(=O)NC(C)C)c1 (centres unmarked) [Example 71, 2-amino-5-(4-(2-hydroxy-2-(3-(trifluoromethyl)phenyl)acetamido)-2-methylphenyl)-N-isopropylnicotinamide] | 0.501 to 1 | 
9 | Cc1ccccc1C(O)C(=O)Nc1ccc(-c2cnc(N)c(C(=O)NC(C)C)c2)c(Cl)c1 (centres unmarked) [Example 91, 2-amino-5-(2-chloro-4-(2-hydroxy-2-(o-tolyl)acetamido)phenyl)-N-isopropylnicotinamide] | 0.251 to 0.5 | 
10 | Cc1cccc(C(O)C(=O)Nc2ccc(-c3cnc(N)c(C(=O)NC(C)C)c3)c(Cl)c2)c1 (centres unmarked) [Example 93, 2-amino-5-(2-chloro-4-(2-hydroxy-2-(m-tolyl)acetamido)phenyl)-N-isopropylnicotinamide] | 0.101 to 0.25 | 
11 | Cc1cc(NC(=O)C(O)c2cc(F)cc(F)c2)ccc1-c1cnc(N)c(C(=O)NC2CCC2)n1 (centres unmarked) [Example 141, 3-amino-N-cyclobutyl-6-(4-(2-(3,5-difluorophenyl)-2-hydroxyacetamido)-2-methylphenyl) pyrazine-2-carboxamide] | 0.101 to 0.25 | 
12 | Cc1cc(NC(=O)C(O)c2cc(F)cc(F)c2)ccc1-c1cnc(N)c(C(=O)NC2COC2)n1 (centres unmarked) [Example 142, 3-amino-6-(4-(2-(3,5-difluorophenyl)-2-hydroxyacetamido)-2-methylphenyl)-N-(oxetan-3-yl)pyrazine-2-carboxamide] | 1 to 2 | 
13 | CC(C)NC(=O)c1nc(-c2ccc(NC(=O)C(O)c3cc(F)cc(F)c3)cc2Cl)cnc1N (centres unmarked) [Example 162, 3-amino-6-(2-chloro-4-(2-(3,5-difluorophenyl)-2-hydroxyacetamido)phenyl)-N-isopropylpyrazine-2-carboxamide] | 0.101 to 0.25 | 
14 | Nc1ncc(-c2ccc(NC(=O)C(O)c3cc(F)cc(F)c3)cc2Cl)nc1C(=O)NC1CC1 (centres unmarked) [Example 167] | 0.101 to 0.25 | 
15 | Cc1ccccc1CC(=O)Nc1ccc(-c2cnc(N)c(C(=O)NC(C)C)c2)c(C)c1 [Example 195, 2-amino-N-isopropyl-5-(2-methyl-4-(2-(o-tolyl)acetamido)phenyl)nicotinamide] | 0.251 to 0.5 | 
16 | Cc1cccc(CC(=O)Nc2ccc(-c3cnc(N)c(C(=O)NC(C)C)c3)c(C)c2)c1 [Example 196, 2-amino-N-isopropyl-5-(2-methyl-4-(2-(m-tolyl)acetamido)phenyl)nicotinamide] | 0.251 to 0.5 | 
17 | CCc1ccccc1CC(=O)Nc1ccc(-c2cnc(N)c(C(=O)NC(C)C)c2)c(C)c1 [Example 204, 2-amino-5-(4-(2-(2-ethylphenyl)acetamido)-2-methylphenyl)-N-isopropylnicotinamide] |  | 101 to 250

Now from value to compound:

Row | IC50 (PERK) [µM] | IC50 [1] [nM] | SMILES
18 | 0.051 to 0.1 |  | CCc1cc(NC(=O)C(O)c2ccccc2C)ccc1-c1cnc(N)c(C(=O)NC(C)C)c1 (single isomer, unassigned) [Example 104, 2-amino-5-(2-ethyl-4-(2-hydroxy-2-(o-tolyl)acetamido)phenyl)-N-isopropylnicotinamide]
19 | 0.051 to 0.1 |  | Cc1cc(NC(=O)C(O)c2cc(F)cc(F)c2)ccc1-c1cnc(N)c(C(=O)NC2CCOCC2)n1 (single isomer, unassigned) [Example 145, 3-amino-6-(4-(2-(3,5-difluorophenyl)-2-hydroxyacetamido)-2-methylphenyl)-N-(tetrahydro-2H-pyran-4-yl)pyrazine-2-carboxamide]
20 | 0.026 to 0.05 |  | COCCNC(=O)c1nc(-c2ccc(NC(=O)C(O)c3cc(F)cc(F)c3)cc2C)cnc1N (single isomer, unassigned) [Example 147, 3-amino-6-(4-(2-(3,5-difluorophenyl)-2-hydroxyacetamido)-2-methylphenyl)-N-(2-methoxyethyl) pyrazine-2-carboxamide]
21 | 0.051 to 0.1 |  | Cc1cc(NC(=O)C(O)c2cc(F)cc(F)c2)ccc1-c1cnc(N)c(C(=O)NC2CCOCC2)c1 (centres unmarked) [Example 50, 2-amino-5-(4-(2-(3,5-difluorophenyl)-2-hydroxyacetamido)-2-methylphenyl)-N-(tetrahydro-2H-pyran-4-yl)nicotinamide]
22 | 0.051 to 0.1 |  | COCCNC(=O)c1cc(-c2ccc(NC(=O)C(O)c3cc(F)cc(F)c3)cc2C)cnc1N (centres unmarked) [Example 54, 2-amino-5-(4-(2-(3,5-difluorophenyl)-2-hydroxyacetamido)-2-methylphenyl)-N-(2-methoxyethyl) nicotinamide]
23 | 0.001 to 0.025 |  | Cc1cc(NC(=O)C(O)c2cccc(C(F)(F)F)c2)ccc1-c1cnc(N)c(C(=O)NC(C)C)c1 (centres unmarked) [Example 70, 2-amino-5-(4-(2-hydroxy-2-(3-(trifluoromethyl)phenyl)acetamido)-2-methylphenyl)-N-isopropylnicotinamide]
24 | 0.051 to 0.1 |  | Cc1ccccc1C(O)C(=O)Nc1ccc(-c2cnc(N)c(C(=O)NC(C)C)c2)c(Cl)c1 (centres unmarked) [Example 90, 2-amino-5-(2-chloro-4-(2-hydroxy-2-(o-tolyl)acetamido)phenyl)-N-isopropylnicotinamide]
25 | 0.001 to 0.025 |  | Cc1cccc(C(O)C(=O)Nc2ccc(-c3cnc(N)c(C(=O)NC(C)C)c3)c(Cl)c2)c1 (centres unmarked) [Example 92, 2-amino-5-(2-chloro-4-(2-hydroxy-2-(m-tolyl)acetamido)phenyl)-N-isopropylnicotinamide]
26 | 0.026 to 0.05 |  | Cc1cc(NC(=O)C(O)c2cc(F)cc(F)c2)ccc1-c1cnc(N)c(C(=O)NC2CCC2)n1 (centres unmarked) [Example 140, 3-amino-N-cyclobutyl-6-(4-(2-(3,5-difluorophenyl)-2-hydroxyacetamido)-2-methylphenyl) pyrazine-2-carboxamide]
27 | 0.026 to 0.05 |  | Cc1cc(NC(=O)C(O)c2cc(F)cc(F)c2)ccc1-c1cnc(N)c(C(=O)NC2COC2)n1 (centres unmarked) [Example 143, 3-amino-6-(4-(2-(3,5-difluorophenyl)-2-hydroxyacetamido)-2-methylphenyl)-N-(oxetan-3-yl)pyrazine-2-carboxamide]
28 | 0.051 to 0.1 |  | CC(C)NC(=O)c1nc(-c2ccc(NC(=O)C(O)c3cc(F)cc(F)c3)cc2Cl)cnc1N (centres unmarked) [Example 163, 3-amino-6-(2-chloro-4-(2-(3,5-difluorophenyl)-2-hydroxyacetamido)phenyl)-N-isopropylpyrazine-2-carboxamide]
29 | 0.026 to 0.05 |  | Nc1ncc(-c2ccc(NC(=O)C(O)c3cc(F)cc(F)c3)cc2Cl)nc1C(=O)NC1CC1 (centres unmarked) [Example 166, 3-amino-6-(2-chloro-4-(2-(3,5-difluorophenyl)-2-hydroxyacetamido)phenyl)-N-cyclopropyl-pyrazine-2-carboxamide]

Source: patent US12473296B2, “Perk inhibiting compounds” (HiberCell, Inc., priority 2019, dated 2025)
